Experimental findings from ChEMBL document CHEMBL4610073, “Potential Antidiabetic Fumiquinazoline Alkaloids from the Marine-Derived Fungus Scedosporium apiospermum F41-1” (J Nat Prod, 2020) are described below.

Data set [1] relates to 3T3-L1. The experiment in a line: Antidiabetic activity in mouse 3T3L1 preadipocytes assessed as increase in triglycerides level after 6 days. Type of data set: functional, cell-based. The note with it: 3T3-L1, 144 h.
Data set [2] concerns the target T1, Peroxisome proliferator-activated receptor gamma (Mus musculus) (UniProt P37238).
T1 sequence (whole entry): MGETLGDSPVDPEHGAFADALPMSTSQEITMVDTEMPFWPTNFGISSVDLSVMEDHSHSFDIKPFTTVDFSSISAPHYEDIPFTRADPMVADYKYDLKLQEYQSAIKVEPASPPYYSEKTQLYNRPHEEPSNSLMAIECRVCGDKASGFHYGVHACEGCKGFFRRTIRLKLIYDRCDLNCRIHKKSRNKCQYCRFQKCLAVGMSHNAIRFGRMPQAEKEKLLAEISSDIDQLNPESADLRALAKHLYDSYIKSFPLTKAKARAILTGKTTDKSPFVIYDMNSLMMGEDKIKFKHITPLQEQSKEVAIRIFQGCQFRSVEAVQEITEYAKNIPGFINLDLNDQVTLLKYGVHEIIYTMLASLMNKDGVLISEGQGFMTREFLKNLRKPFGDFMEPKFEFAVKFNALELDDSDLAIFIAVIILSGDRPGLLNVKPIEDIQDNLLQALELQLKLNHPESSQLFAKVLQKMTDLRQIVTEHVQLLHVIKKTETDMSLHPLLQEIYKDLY
As to the kind of experiment: Agonist activity at PPARgamma in mouse 3T3L1 preadipocytes assessed as increase in FABP4 mRNA expression at 5 uM after 6 days by RT-PCR analysis. The format is cell-based. Particulars: 3T3-L1.

Data set [3] relates to 3T3-L1. The experiment in a line: Antidiabetic activity in mouse 3T3L1 preadipocytes assessed as increase in triglycerides level at 5 uM after 3 to 6 days by ORO staining based microscopic method. The format is functional, cell-based.
In data set [4] the test system is 3T3-L1. As to the kind of experiment: Antidiabetic activity in mouse 3T3L1 preadipocytes assessed as increase in triglycerides level at 5 uM up to 3 days by ORO staining based microscopic method. Type of data set: functional, cell-based.
The target of data set [5] is T1, Peroxisome proliferator-activated receptor gamma (Mus musculus). The experiment in a line: Agonist activity at PPARgamma in mouse 3T3L1 preadipocytes assessed as increase in LXRalpha mRNA expression at 5 uM after 6 days by RT-PCR analysis. The format is cell-based. The note with it: 3T3-L1.
In data set [6] the test system is 3T3-L1. As to the kind of experiment: Cytotoxicity against mouse 3T3L1 preadipocytes assessed as reduction in cell viability at 50 uM. The format is cell-based. Particulars: 3t3-l1, 50 µM.
For data set [7], the system named is 3T3-L1. As to the kind of experiment: Antidiabetic activity in mouse 3T3L1 preadipocytes assessed as increase in triglycerides level at 5 uM after 6 days. The format is functional, cell-based.
Data set [8] deals with 3T3-L1. As to the kind of experiment: Antidiabetic activity in mouse 3T3L1 preadipocytes assessed as increase in triglycerides level at 5 uM after 6 days in presence of GW9662. The format is functional, cell-based.
Data set [9] addresses T1, Peroxisome proliferator-activated receptor gamma (Mus musculus). As to the kind of experiment: Agonist activity at PPARgamma in mouse 3T3L1 preadipocytes assessed as increase in PPARgamma mRNA expression at 5 uM after 6 days by RT-PCR analysis. The note with it: 3T3-L1. The format is cell-based.
For data set [10] the target is unchanged. The experiment in a line: Agonist activity at PPARgamma in mouse 3T3L1 preadipocytes assessed as increase in C/EBPalpha mRNA expression at 5 uM after 6 days by RT-PCR analysis. Particulars: 3T3-L1. The format is cell-based.
For data set [11], the system named is 3T3-L1. As to the kind of experiment: Antidiabetic activity in mouse 3T3L1 preadipocytes assessed as increase in triglycerides level at 5 uM after 6 days in presence of T0070907. Type of data set: functional, cell-based.
The target in data set [12] is T1, Peroxisome proliferator-activated receptor gamma (Mus musculus). As to the kind of experiment: Agonist activity at PPARgamma in mouse 3T3L1 preadipocytes assessed as increase in AMPKalpha mRNA expression at 5 uM after 6 days by RT-PCR analysis. Type of data set: cell-based. Particulars: 3T3-L1.
Data set [13] relates to 3T3-L1. The experiment in a line: Antidiabetic activity in mouse 3T3L1 preadipocytes assessed as increase in triglycerides level at 1 to 5 uM after 6 days by ORO staining based microscopic method. The format is functional, cell-based.
In data set [14] the target is T1, Peroxisome proliferator-activated receptor gamma (Mus musculus). As to the kind of experiment: Agonist activity at PPARgamma in mouse 3T3L1 preadipocytes assessed as increase in SCD-1 mRNA expression at 5 uM after 6 days by RT-PCR analysis. The format is cell-based. Particulars: 3T3-L1.

Active and inactive are the calls of the source. The rule behind the calls is not given here.

For `CN(CCOc1ccc(CC2SC(=O)NC2=O)cc1)c1ccccn1` (stereo unspecified) [ROSIGLITAZONE], the EC50 (in general, the midpoint of the concentration-response curve) in data set [1] came to 0.12 µM.

Turning to `CC[C@@H]1N[C@@H]2N(C1=O)c1ccccc1[C@@]2(O)C[C@@H]1C(=O)NC(=C(C)C)c2nc3ccccc3c(=O)n21`, the result in [2], in data set [3], in data set [4], in data set [5], in data set [7] and in [9] was Active. Besides, the outcome in [10], in [12], in [13] and in [14] was Active. In data set [1], the concentration for a half-maximal effect (EC50) came out at 0.27 µM. Besides, the Activity result in data set [6] is given as “Non-Toxic”. The outcome in data set [8] and in data set [11] was inactive.

`C/C=C1\NC(=O)[C@@H](Cc2c[nH]c3ccccc23)n2c1nc1ccccc1c2=O`: in data set [1], the EC50 came out at 1.03 µM. In addition, the outcome in data set [3], in data set [4], in [7] and in [13] was Active. For the same compound, the Activity entry in data set [6] was “Non-Toxic”.

For the compound `CC(C)=C1NC(=O)[C@@H](C[C@]2(O)c3ccccc3N3C(=O)[C@H](C(C)C)N[C@H]32)n2c1nc1ccccc1c2=O`, the outcome in [2], in [3], in [4], in [5], in data set [7] and in data set [9] was Active. Also, the outcome in [10], in [12], in data set [13] and in [14] was Active. Also, the EC50 in data set [1] was determined as 0.36 µM. The Activity result in data set [6] is “Non-Toxic”. Also, the result in data set [8] and in [11] was inactive.

On to `CC(C)=C1NC(=O)[C@@H](C[C@]2(O)c3ccccc3N3C(=O)C(C)(C)N[C@H]32)n2c1nc1ccccc1c2=O`, for which the EC50 in [1] came out at 2.34 µM. The outcome in data set [3], in data set [4], in data set [7] and in data set [13] was Active. Further, the Activity entry in data set [6] is “Non-Toxic”.
